Data published in patent US11147272B2, “Pyridone compounds and agricultural and horticultural fungicides comprising the same as active ingredients” (MITSUI CHEMICALS AGRO, INC., priority 2017, dated 2021).

Experiments:
[1] = test system: Blumeria graminis f. sp. hordei; assay: Test Example D: Powdery mildew on barley; details: for Test D control value class: class of control value
Puccinia recondita = assay: Test Example E: Brown rust on wheat; type: in vivo; details: for Test E control value class: class of control value
Magnaporthe grisea = assay: whole plant or invertebrate; type: in vivo; details: for Test A control value class: class of control value
Phytophthora infestans = assay: whole plant or invertebrate; type: in vivo; details: for Test F control value class: class of control value
Alternaia brassicicola = assay: Test Example C: Alternaria sooty spot on cabbage; type: in vivo; details: for Test C control value class: class of control value
Description: Seeds of a test plant (cabbage variety: Shikidori) were planted and cultivated until the cotyledons extended.
<Control Value> Control value=100{1−(n/3)}

Plasmopara viticola = assay: Test Example G: Downy mildew on vine; details: for Test G control value: 7 to 10 days after inoculation; for Test G control value class: Downy mildew on vine (Neomuscat), 2.5 ml/pot, assessed 7 to 10 days after inoculation
Botrytis cinerea = assay: Test Example B: Gray mold on tomato; details: for Test B control value class: class of control value
[2] = test system: Colletotrichum orbiculare; assay: Test Example H: Anthracnose on cucumber; details: for Test H control value: 6 to 10 days after inoculation; for Test H control value class: Anthracnose on cucumber (Sagami Hanjiro), 2.5 ml/pot, assessed 6 to 10 days after inoculation
[3] = Powdery mildew on barley, control value class
[4] = Brown rust on wheat, control value class
[5] = Blast on rice, control value class
[6] = Late blight on tomato, control value class
[7] = Alternaria sooty spot on cabbage, control value class
[8] = Downy mildew on vine, 250 ppm spray
[9] = Gray mold on tomato, control value class
[10] = Anthracnose on cucumber, 250 ppm spray
[11] = Alternaria sooty spot on cabbage
[12] = 250 ppm drug solution sprayed on test plant
[13] = 250 ppm drug solution sprayed (2.5 ml/pot), grape Neomuscat
[14] = 250 ppm drug solution sprayed (2.5 ml/pot), cucumber Sagami Hanjiro

| Compound | Test D control value [1, 3] | Test E control value (Puccinia recondita; [4]) | Test A control value (Magnaporthe grisea; [5]) | Test F control value (Phytophthora infestans; [6]) | Test C control value (Alternaia brassicicola; [7]) | Test G control value (Plasmopara viticola; [8]) | Test B control value (Botrytis cinerea; [9]) | Test H control value [2, 10] | Test D control value [1, 12] | Test E control value (Puccinia recondita; [12]) | Test A control value (Magnaporthe grisea; [12]) | Test F control value (Phytophthora infestans; [12]) | Test C control value (Alternaia brassicicola; [12]) | Test G control value (Plasmopara viticola; [13]) | Test B control value (Botrytis cinerea; [12]) | Test H control value [2, 14] | other results |
| --- | --- | --- | --- | --- | --- | --- | --- | --- | --- | --- | --- | --- | --- | --- | --- | --- | --- |
| CCn1c(-c2ccc(F)cc2Cl)c(C)cc(Br)c1=O [compound 281] | H (more than 50% control value) | H (more than 50% control value) | L (50% or less control value) | L (50% or less control value) | L (50% or less control value) | L (50% or less control value) | H (more than 50% control value) | H (more than 50% control value) |  |  |  |  |  |  |  |  |  |
| CCn1c(-c2ccc(F)cc2)c(C(O)C(C)C)cc(Cl)c1=O (centres unmarked) [compound 211] | L (50% or less control value) | H (more than 50% control value) | L (50% or less control value) | L (50% or less control value) | H (more than 50% control value) | L (50% or less control value) | H (more than 50% control value) | L (50% or less control value) |  |  |  |  |  |  |  |  |  |
| CCn1c(-c2c(F)cc(F)cc2F)c(CN(OC)C(C)=O)cc(Cl)c1=O [compound 132] |  |  |  |  |  |  |  |  |  |  |  |  |  |  |  |  | Test D control value class ([1]; Powdery mildew on barley): L (50% or less control value); Test E control value class (Puccinia recondita; Brown rust on wheat): L (50% or less control value); Test A control value class (Magnaporthe grisea; Blast on rice): H (more than 50% control value); Test F control value class (Phytophthora infestans; Late blight on tomato): L (50% or less control value); Test C control value class (Alternaia brassicicola; [11]): H (more than 50% control value); Test G control value class (Plasmopara viticola; 250 ppm spray): L (50% or less control value); Test B control value class (Botrytis cinerea; Gray mold on tomato): L (50% or less control value); Test H control value class ([2]; 250 ppm spray): L (50% or less control value) |
| CCCc1cc(I)c(=O)n(CC)c1-c1c(F)cc(OC)cc1F [compound 436] |  |  |  |  |  |  |  |  | H (more than 50% control value) | H (more than 50% control value) | H (more than 50% control value) | L (50% or less control value) | H (more than 50% control value) | L (50% or less control value) | H (more than 50% control value) | H (more than 50% control value) |  |
| CCn1c(-c2ccc(OC)cc2Cl)c(CC(C)C)ccc1=O [compound 238] | H (more than 50% control value) | H (more than 50% control value) | H (more than 50% control value) | L (50% or less control value) | H (more than 50% control value) | H (more than 50% control value) | H (more than 50% control value) | H (more than 50% control value) |  |  |  |  |  |  |  |  |  |
| CCCc1ccc(=O)n(C)c1-c1ccc(OC)cc1Br [compound 416] |  |  |  |  |  |  |  |  | L (50% or less control value) | H (more than 50% control value) | L (50% or less control value) | L (50% or less control value) | L (50% or less control value) | L (50% or less control value) | L (50% or less control value) | L (50% or less control value) |  |
| CCn1c(-c2ccc(OC)cc2)c(CC(C)C)ccc1=O [compound 194] | H (more than 50% control value) | H (more than 50% control value) | H (more than 50% control value) | L (50% or less control value) | L (50% or less control value) | L (50% or less control value) | H (more than 50% control value) | L (50% or less control value) |  |  |  |  |  |  |  |  |  |
| CCOc1ccc(-c2c(CC)cc(Cl)c(=O)n2C)c(Cl)c1 [compound 337] | L (50% or less control value) | H (more than 50% control value) | L (50% or less control value) | L (50% or less control value) | L (50% or less control value) | L (50% or less control value) | H (more than 50% control value) | H (more than 50% control value) |  |  |  |  |  |  |  |  |  |
| CCC(C)(O)c1cc(Cl)c(=O)n(C)c1-c1c(F)cc(OC)cc1F (centres unmarked) [compound 513] |  |  |  |  |  |  |  |  | H (more than 50% control value) | H (more than 50% control value) | H (more than 50% control value) | L (50% or less control value) | H (more than 50% control value) | H (more than 50% control value) | H (more than 50% control value) | H (more than 50% control value) |  |
| CCOc1cc(F)c(-c2c(C(=O)C(C)C)cc(Cl)c(=O)n2CC)c(F)c1 [compound 218] | H (more than 50% control value) | H (more than 50% control value) | H (more than 50% control value) | L (50% or less control value) | H (more than 50% control value) | H (more than 50% control value) | H (more than 50% control value) | H (more than 50% control value) |  |  |  |  |  |  |  |  |  |
| CCCc1cc(Br)c(=O)n(CC(F)F)c1-c1c(F)cc(OC)cc1F [compound 476] |  |  |  |  |  |  |  |  | H (more than 50% control value) | H (more than 50% control value) | H (more than 50% control value) | L (50% or less control value) | H (more than 50% control value) | H (more than 50% control value) | H (more than 50% control value) | H (more than 50% control value) |  |
| CCn1c(-c2c(F)cc(F)cc2F)c(CNOC)cc(Cl)c1=O [compound 112] |  |  |  |  |  |  |  |  |  |  |  |  |  |  |  |  | Test D control value class ([1]; Powdery mildew on barley): H (more than 50% control value); Test E control value class (Puccinia recondita; Brown rust on wheat): H (more than 50% control value); Test A control value class (Magnaporthe grisea; Blast on rice): L (50% or less control value); Test F control value class (Phytophthora infestans; Late blight on tomato): L (50% or less control value); Test C control value class (Alternaia brassicicola; [11]): H (more than 50% control value); Test G control value class (Plasmopara viticola; 250 ppm spray): L (50% or less control value); Test B control value class (Botrytis cinerea; Gray mold on tomato): H (more than 50% control value); Test H control value class ([2]; 250 ppm spray): H (more than 50% control value) |
| CCc1ccc(=O)n(CC)c1-c1ccc(F)cc1Cl [compound 185] | H (more than 50% control value) | H (more than 50% control value) | L (50% or less control value) | L (50% or less control value) | H (more than 50% control value) | L (50% or less control value) | H (more than 50% control value) | L (50% or less control value) |  |  |  |  |  |  |  |  |  |
